Each structure is given as a SMILES string. Values joined by “and” are separate entries in the source; they are usually repeats but may differ in a detail not shown here. Identical values can stand only once.

Data set [1] concerns the target T1, receptor interacting protein kinase 1 (GST-hRIPK1 (8-327)) (Homo sapiens, UniProt Q13546).
T1 construct: GST-hRIPK1 (8-327) enzyme was generated by Proteros GmbH by Baculovirus expression system
T1 sequence (Q13546 8-327): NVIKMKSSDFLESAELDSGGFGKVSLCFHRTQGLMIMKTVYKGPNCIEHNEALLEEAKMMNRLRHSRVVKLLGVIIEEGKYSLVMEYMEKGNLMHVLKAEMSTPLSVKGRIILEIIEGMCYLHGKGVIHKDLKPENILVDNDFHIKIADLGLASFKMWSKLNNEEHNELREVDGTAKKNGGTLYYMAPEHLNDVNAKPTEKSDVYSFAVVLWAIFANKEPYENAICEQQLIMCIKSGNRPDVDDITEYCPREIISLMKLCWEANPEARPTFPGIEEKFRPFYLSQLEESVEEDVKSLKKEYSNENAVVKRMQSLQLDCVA
As to the kind of experiment: ADP-Glo luminescence assay, RIPK1 autophosphorylation. As to conditions: 1.5 μg/mL GST-hRIPK1 (8-327), 50 μM ATP, 3 hours at room temperature. It counts as biochemical. On the procedure:
Compound potency at receptor interacting protein kinase 1 and selectivity at receptor interacting protein kinase 2 and receptor interacting protein kinase 3 was determined in autophosphorylation mode, using an ADP-Glo luminescence assay, which measures the conversion of ATP to ADP.
(§1) GST-hRIPK1 (8-327) enzyme was generated by Proteros GmbH by Baculovirus expression system. GST-hRIPK2 (1-299) and GST-hRIPK3 (1-518) enzymes were purchased from SignalChem. Test compounds were diluted in DMSO and 0.1 μL of solution was dispensed to each well of a 384-well white solid microplates. The assay buffer was 50 mM HEPES pH 7.5, 50 mM NaCl, 30 mM MgCl2. The buffer was supplemented with 0.02% CHAPS, 0.01% of Pluronic F127, 0.1 mg/mL BSA and 1 mM DTT. Only for receptor interacting protein kinase 1 5 mM MnCl2, was included in the assay buffer on the day of the experiment. The enzymatic reaction consisted of 1.5 μg/mL GST-hRIPK1 (8-327) and 50 μM ATP for receptor interacting protein kinase 1, 0.4 μg/mL GST-hRIPK2 (1-299) and 150 μM ATP, 0.4 μg/mL GST-hRIPK3 (1-518) and 15 μM ATP. 5 μL of enzyme and 5 μL of ATP were added to the plate at twice the final assay concentration and incubated at room temperature for 3 hours. Following this reaction, 10 μL of ADP-Glo reagent (Promega) was added to each well and incubated for 40 minutes at room temperature. This stops the kinase reaction and depletes any remaining ATP. 20 μL of ADP-Glo detection reagent was then added to each well and incubated at room temperature for at least 15 minutes. The detection reagent converts ADP to ATP and introduces luciferase and luciferin to detect ATP. The luminescence is then measured with the Envision (PerkinElmer) plate reader. Test compound inhibition was expressed as percent inhibition of internal assay controls. For concentration response curves, normalized data is fit and pIC50 determined using XL-fit (IDBS) for Excel. The pIC50 were averaged to determine a mean value, for a minimum of two independent experiments.
Certain compounds were tested in the following. Compound potency at receptor interacting protein kinase 1 and selectivity at receptor interacting protein kinase 2 and receptor interacting protein kinase 3 was determined in autophosphorylation mode, using an ADP-Glo luminescence assay (Berger S. B. et al. (2015) Cell Death Discovery, 1: 15009), which measures the conversion of ATP to ADP.
GST-hRIPK1 (8-327) enzyme was generated by Proteros GmbH by Baculovirus expression system.
as §1, with “Test” for “GST-hRIPK1 (8-327) enzyme was generated by Proteros GmbH by Baculovirus expression system. GST-hRIPK2 (1-299) and GST-hRIPK3 (1-518) enzymes were purchased from SignalChem. Test”, “microplate.” for “microplates.”, “comprised” for “consisted of”, “1” for “1, 0.4 μg/mL GST-hRIPK2 (1-299) and 150 μM ATP, 0.4 μg/mL GST-hRIPK3 (1-518)”, “IC50” for “pIC50”, “experiments. […]” for “experiments.”
On the technique in general: ADP-Glo first removes unused ATP, then detects ADP through luciferase.

For data set [2], the target named is T1, receptor interacting protein kinase 1 (GST-hRIPK1 (8-327)). The data set can be described thus: Fluorescent Polarization Binding (FP Binding) assay. The settings on record: 10 nM GST-hRIPK1 (8-327), 5 nM fluorescent-labeled ligand, 30 min at RT. In a few lines: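 Displacement of 5 nM fluorescent ligand from 10 nM GST-hRIPK1 (8-327), 30 min at room temperature in pH 7.5 HEPES buffer, 1% DMSO. Fluorescence polarization read (ex 531/em 595 nm); IC50 fitted from percent inhibition and averaged over at least two independent experiments.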

The IC50 is the concentration that gives 50% inhibition. In the case of `N#CC1(C(=O)N2OCC[C@H]2c2ccccc2)CC1` [Compound 16, 1-[(3S)-3-phenyl-1,2-oxazolidine-2-carbonyl]cyclopropane-1-carbonitrile], the half-inhibitory concentration (IC50) in data set [1] and in data set [2] was < 1000 nM in each case.

Broadly, the melting point is the temperature, or range, at which the solid turns liquid. As for `CC(C)(C(=O)N1OCC[C@H]1c1ccc(-c2noc(C3CC3)n2)cc1)C(F)F` [Compound 208, 1-[(3S)-3-[4-(5-cyclopropyl-1,2,4-oxadiazol-3-yl)phenyl]-1,2-oxazolidin-1-yl]-3,3-difluoro-2,2-dimethylpropan-1-one], the melting point was in the range of 92.1 to 95.6 °C. Further, the half-maximal inhibitory concentration (IC50) in data set [2] is < 1000 nM.

As for `CC(C)(C)C(=O)N1OCC[C@H]1c1ccccc1` [Compound 2, 2,2-dimethyl-1-[(3S)-3-phenyl-1,2-oxazolidin-2-yl]propan-1-one], the concentration for half-maximal inhibition (IC50) in data set [1] and in data set [2] was < 1000 nM throughout.

In the case of `CC(C)(C)C(=O)N1OCC[C@@H]1c1ccccc1F` [Compound 71], the IC50 in data set [1] and in data set [2] was < 1000 nM each time.

Consider `CC1(C(=O)N2OCC[C@H]2c2ccccc2)CCOCC1` [Compound 69, (3S)-2-(4-methyloxane-4-carbonyl)-3-phenyl-1,2-oxazolidine], for which the IC50 in data set [1] and in data set [2] was < 1000 nM each time.

Consider `N#CC1(C(=O)N2OCC[C@H]2c2ccccc2)CCC1` [Compound 79, 1-[(3S)-3-Phenyl-1,2-oxazolidine-2-carbonyl]cyclobutane-1-carbonitrile], for which the IC50 in data set [1] and in data set [2] was < 1000 nM in each case.

As for `Cn1cc([C@@H]2CCON2C(=O)C(C)(C)C)cn1` (single isomer, unassigned) [Compound 106], the concentration for half-maximal inhibition (IC50) in data set [1] and in data set [2] was < 1000 nM each time.

As to `CC(C)(C)C(=O)N1OCCC1c1cccnc1F` (centres unmarked) [Compound 81, 1-(3-(2-fluoropyridin-3-yl)isoxazolidin-2-yl)-2,2-dimethylpropan-1-one], the IC50 in data set [1] and in data set [2] was < 1000 nM each time.

Take `CC(C)(C(=O)N1OCC[C@H]1c1ccc(-c2ncon2)cc1)C(F)F` [Compound 207, 3,3-difluoro-2,2-dimethyl-1-[(3S)-3-[4-(1,2,4-oxadiazol-3-yl)phenyl]-1,2-oxazolidin-2-yl]propan-1-one]: the melting point lay within 87.9 to 88.9 °C. In addition, the 50% inhibitory concentration (IC50) in data set [2] was < 1000 nM.

For the compound `CC(C)(C)C(=O)N1OCC[C@H]1c1ccc(C#N)cc1` [Compound 87, 4-[(3S)-2-(2,2-dimethylpropanoyl)-1,2-oxazolidin-3-yl]benzonitrile], the IC50 in data set [1] and in data set [2] was < 1000 nM throughout.

For the compound `CC(C)(C#N)C(=O)N1OCC[C@H]1c1ccccc1` [Compound 17, 2,2-Dimethyl-3-oxo-3-[(3S)-3-phenyl-1,2-oxazolidin-2-yl]propanenitrile], the half-maximal inhibitory concentration (IC50) in data set [1] and in data set [2] was < 1000 nM throughout.

As to `O=C(C1CC1)N1OCC[C@H]1c1ccccc1` [Compound 12, (3S)-2-Cyclopropanecarbonyl-3-phenyl-1,2-oxazolidine], the concentration for half-maximal inhibition (IC50) in data set [1] and in data set [2] was < 1000 nM in each case.

Regarding `CC(C)(C(=O)N1OCC[C@H]1c1ccc(/C(N)=N/O)cc1)C(F)F` [Compound 206, (Z)-4-[(3S)-2-(3,3-Difluoro-2,2-dimethylpropanoyl)-1,2-oxazolidin-3-yl]-N′-hydroxybenzene-1-carboximidamide], the melting point was in the range of 67.3 to 75.6 °C. This compound returned an IC50 in data set [2] of 1000 to 10000 nM.

Regarding `CC1(C(=O)N2OCC[C@H]2c2ccccc2)CCC1` [Compound 77, (3S)-2-(1-Methylcyclobutane-carbonyl)-3-phenyl-1,2-oxazolidine], the half-inhibitory concentration (IC50) in data set [1] and in data set [2] was < 1000 nM each time.

Consider `CC(C)(C)C(=O)N1OCCC1c1ccc(F)nc1` (centres unmarked) [Compound 70], for which the IC50 in data set [1] and in data set [2] was < 1000 nM throughout.

For the compound `CC(C)(C(=O)N1OCC[C@H]1c1ccc(F)cc1)C(F)F` [Compound 101, 3,3-difluoro-1-[(3S)-3-(4-fluorophenyl)-1,2-oxazolidin-2-yl]-2,2-dimethylpropan-1-one], the IC50 in data set [1] was < 1000 nM; in data set [2] it was < 1000 nM and 8 nM.

Values taken from patent publication US10709692B2, “Isoxazolidine derived inhibitors of receptor interacting protein kinase 1 (RIPK1)” (Denali Therapeutics Inc., priority 2015, dated 2020).
